The Kinase Knowledgebase extract (Sharma et al. 2016)

biological target: MAPK14 (human) (UniProt Q16539); assay: Inhibition of MAPK14 Kinase Activity
Sequence (Q16539 whole entry, looked up): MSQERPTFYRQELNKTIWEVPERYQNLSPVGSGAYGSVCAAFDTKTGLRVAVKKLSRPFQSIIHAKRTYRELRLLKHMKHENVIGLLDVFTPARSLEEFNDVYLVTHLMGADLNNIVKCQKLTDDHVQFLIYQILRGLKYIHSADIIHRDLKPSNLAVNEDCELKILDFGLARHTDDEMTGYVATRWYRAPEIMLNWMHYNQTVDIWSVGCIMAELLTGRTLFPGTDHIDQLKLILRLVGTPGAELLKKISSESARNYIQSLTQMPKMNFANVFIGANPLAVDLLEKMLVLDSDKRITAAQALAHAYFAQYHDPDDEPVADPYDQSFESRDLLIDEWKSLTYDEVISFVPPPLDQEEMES

IC50, ≤ 10 µM:
O=C1CCC(Cc2ccc(Cl)cc2)CN1c1c(Cl)csc1Cl (stereo not given), O=C1CCC(Cc2ccc(F)cc2)CN1c1c(Cl)csc1Cl (stereo not given), O=C1CCC(Sc2cc(Cl)cc(Cl)c2)CN1c1c(Cl)cccc1Cl (stereo not given), Cc1ccc(CC2CN(c3c(Cl)cccc3Cl)C(=O)CO2)cc1 (stereo not given), Cc1ccc(SC2CCC(=O)N(c3c(Cl)cccc3Cl)C2)c(C)c1 (stereo not given), Cc1cc(C)cc(OC2CCC(=O)N(c3c(Cl)cccc3Cl)C2)c1 (stereo not given), O=C1CCC(C(O)c2cccs2)CN1c1c(Cl)cc(Br)cc1Cl (stereo not given), O=C1CCC(Oc2ccccc2F)CN1c1c(Cl)cccc1Cl (stereo not given), O=C1NCC(Cc2cc(Cl)cc(Cl)c2)CN1c1c(Cl)cccc1Cl (stereo not given), O=C1CCC(Oc2ccccc2Cl)CN1c1c(Cl)cccc1Cl (stereo not given), Nc1cc(Cl)c(N2CC(Oc3ccc(F)cc3F)CCC2=O)c(Cl)n1 (stereo not given), COc1ccc(CC2CCC(=O)N(c3c(Cl)cccc3Cl)C2)cc1 (stereo not given), O=C(Cc1ccccc1)Nc1ccc(Cl)c(N2CC(Sc3ccc(F)cc3F)CCC2=O)c1Cl (stereo not given), O=C1CCC(Sc2ccccc2)CN1c1c(Cl)cncc1Cl (stereo not given), O=C1CCC(Oc2ccc(F)cc2F)CN1c1c(Cl)sc(CO)c1Cl (stereo not given), O=C1CCC(Sc2ccc(F)cc2)CN1c1c(Cl)csc1Cl (stereo not given), COc1ccccc1OC1CCC(=O)N(c2c(Cl)cncc2Cl)C1 (stereo not given), CN(C)CCCc1cc(Cl)c(N2CC(Cc3ccc(F)cc3F)CCC2=O)c(Cl)c1 (stereo not given), O=C1OCC(Cc2ccc(F)cc2F)CN1c1c(Cl)cc(O)cc1Cl (stereo not given), O=C1CCC(Sc2ccc3ccccc3c2)CN1C1C(Cl)CCCC1Cl (stereo not given), Cc1ccccc1SC1CCC(=O)N(c2c(Cl)ccnc2Cl)C1 (stereo not given), O=C1OCC(Cc2ccc(F)cc2F)CN1c1c(Cl)cc(CO)cc1Cl (stereo not given), O=C1CCC(Sc2cccc3ccccc23)CN1c1c(Cl)ccnc1Cl (stereo not given), CC(=O)Nc1ccc(Cl)c(N2CC(Oc3ccc(F)cc3F)CCC2=O)c1Cl (stereo not given), O=C1CSC(Cc2ccc(F)cc2F)CN1c1c(Cl)cccc1Cl (stereo not given), O=C1CCC(Sc2ccc(F)cc2)CN1c1c(Cl)ccnc1Cl (stereo not given), O=C1SCC(Cc2ccc(F)cc2F)CN1c1c(Cl)cccc1Cl (stereo not given), CNc1cc(Cl)c(N2CC(Cc3ccc(F)cc3F)OCC2=O)c(Cl)c1 (stereo not given), O=C1CCC(Sc2cc(Cl)cc(Cl)c2)CN1c1c(Cl)cncc1Cl (stereo not given), COC(=O)CCc1cc(Cl)c(N2CC(Cc3ccc(F)cc3F)CCC2=O)c(Cl)c1 (stereo not given), CC(C)(C)OC(=O)N[C@@H](COCc1ccccc1)C(=O)Nc1cc(Cl)c(N2CC(Cc3ccc(F)cc3F)CCC2=O)c(Cl)c1 (stereo not given in full), O=C1CCC(Cc2ccc(F)cc2F)CN1c1c(Cl)csc1Cl (stereo not given), O=C1CCC(Oc2ccccc2Cl)CN1C1C(Cl)CCCC1Cl (stereo not given), O=C1CCC(Sc2ccccc2F)CN1c1c(Cl)ccnc1Cl (stereo not given), CN(C)CCNC(=O)CNc1cc(Cl)c(N2CC(Cc3ccc(F)cc3F)CCC2=O)c(Cl)c1 (stereo not given), Cc1cccc(C)c1N1CC(Cc2ccccc2O)CCC1=O (stereo not given), O=C(Cc1ccccc1)Nc1cnc(Cl)c(N2CC(Cc3ccc(F)cc3F)CCC2=O)c1Cl (stereo not given), O=C1CCC(Oc2cc(F)cc(F)c2)CN1C1C(Cl)CCCC1Cl (stereo not given), O=C1CCC(Oc2cc(Cl)cc(Cl)c2)CN1C1C(Cl)CCCC1Cl (stereo not given), O=C(CCCCO)Nc1cc(Cl)c(N2CC(Cc3ccc(F)cc3F)CCC2=O)c(Cl)c1 (stereo not given), COC(=O)/C=C/c1ccccc1CC1CCC(=O)N(c2c(C)cccc2C)C1 (stereo not given), CN(C)Cc1cc(Cl)c(N2CC(Cc3ccc(F)cc3F)CCC2=O)c(Cl)c1 (stereo not given), Cc1cc(C)cc(CC2CCC(=O)N(c3c(Cl)csc3Cl)C2)c1 (stereo not given), O=C1CCC(Sc2ccccc2F)CN1C1C(Cl)CCCC1Cl (stereo not given), CC(=O)N1CC(=O)N(c2c(Cl)cccc2Cl)CC1Cc1ccc(F)cc1F (stereo not given), Cc1cc(C)cc(SC2CCC(=O)N(c3c(Cl)ccnc3Cl)C2)c1 (stereo not given), O=C(Cc1ccccc1)Nc1ccc(Cl)c(N2CC(Cc3ccc(F)cc3F)COC2=O)c1Cl (stereo not given), COc1ccccc1OC1CCC(=O)N(c2c(Cl)csc2Cl)C1 (stereo not given), Cc1cccc(C)c1N1CC(/C=C/Cc2ccccc2)(CO)CCC1=O (stereo not given), O=C1CCC(Sc2ccc(Cl)cc2Cl)CN1c1c(Cl)csc1Cl (stereo not given), O=C1CCC(Cc2ccc(F)cc2F)CN1c1c(Cl)sc(CO)c1Cl (stereo not given), O=C1CCC(Oc2ccc(Cl)cc2Cl)CN1c1c(Cl)csc1Cl (stereo not given), C[C@@H]1C[C@H](Cc2ccc(F)cc2F)CN(c2c(Cl)cc(Br)cc2Cl)C1=O, O=C(Cc1ccccc1)Nc1ccc(Cl)c(N2CC(Cc3ccc(F)cc3F)SCC2=O)c1Cl (stereo not given), O=C1CCC(Cc2ccccc2F)CN1c1c(Cl)ccnc1Cl (stereo not given), O=C1CCC(Cc2cc(Cl)cc(Cl)c2)CN1C1C(Cl)CCCC1Cl (stereo not given), O=C1CCC(Cc2ccc(Cl)cc2)CN1c1c(Cl)cccc1Cl (stereo not given), CNc1cnc(Cl)c(N2CC(Sc3ccc(F)cc3F)CCC2=O)c1Cl (stereo not given), O=C1CCC(Cc2ccc3ccccc3c2)CN1c1c(Cl)ccnc1Cl (stereo not given), CC(=O)Nc1cc(Cl)c(N2CC(Cc3ccc(F)cc3F)CCC2=O)c(Cl)n1 (stereo not given), CNc1ncc(Cl)c(N2CC(Oc3ccc(F)cc3F)CCC2=O)c1Cl (stereo not given), COc1ccc(CC2CSC(=O)N(c3c(Cl)cccc3Cl)C2)cc1 (stereo not given), O=C1CCC(Sc2cccc3ccccc23)CN1c1c(Cl)cncc1Cl (stereo not given), O=C1CCC(Cc2ccc(F)cc2F)CN1c1c(Cl)cc(O)nc1Cl (stereo not given), CCN(CC)CCNc1cc(Cl)c(N2CC(Cc3ccc(F)cc3F)CCC2=O)c(Cl)c1 (stereo not given), O=C(Cc1ccccc1)NC1CCC(Cl)C(N2CC(Sc3ccc(F)cc3F)CCC2=O)C1Cl (stereo not given), Nc1ncc(Cl)c(N2CC(Cc3ccc(F)cc3F)CCC2=O)c1Cl (stereo not given), O=C1CCC(Oc2cccc3ccccc23)CN1c1c(Cl)ccnc1Cl (stereo not given), Cc1cc(C(=O)NCCN(C)C)cc(C)c1N1CC(Cc2ccc(F)cc2F)CNC1=O (stereo not given), CNc1ccc(Cl)c(N2CC(Cc3ccc(F)cc3F)SCC2=O)c1Cl (stereo not given), O=C1CCC(Oc2ccc(F)cc2)CN1c1c(Cl)cccc1Cl (stereo not given), O=C1CCC(Oc2cc(Cl)cc(Cl)c2)CN1c1c(Cl)ccnc1Cl (stereo not given), Nc1ncc(Cl)c(N2CC(Oc3ccc(F)cc3F)CCC2=O)c1Cl (stereo not given), O=C1CCC(Cc2ccccc2)CN1c1c(Cl)cccc1Cl (stereo not given), CC(=O)Nc1ccc(Cl)c(N2CC(Cc3ccc(F)cc3F)CCC2=O)c1 (stereo not given), CC(=O)Nc1cnc(Cl)c(N2CC(Oc3ccc(F)cc3F)CCC2=O)c1Cl (stereo not given), O=C1CCC(Cc2ccc(F)cc2F)CN1c1c(Cl)cc([N+](=O)[O-])cc1Cl (stereo not given), O=C1CCC(Oc2ccc(F)cc2F)CN1c1c(Cl)ccc(CO)c1Cl (stereo not given), O=C1CCC(Cc2ccc(Cl)cc2Cl)CN1c1c(Cl)csc1Cl (stereo not given), O=C1CCC(C(O)c2ccc(F)cc2F)CN1c1c(Cl)cc(Br)cc1Cl (stereo not given), O=C1CCC(Oc2ccc(F)cc2F)CN1c1c(Cl)ncc(O)c1Cl (stereo not given), COc1ccccc1SC1CCC(=O)N(c2c(Cl)cccc2Cl)C1 (stereo not given), O=C1CCC(Sc2ccc(Cl)cc2)CN1c1c(Cl)cncc1Cl (stereo not given), O=C1CCC(Sc2ccc(Cl)cc2Cl)CN1c1c(Cl)ccnc1Cl (stereo not given), Cc1ccccc1CC1CN(c2c(Cl)cccc2Cl)C(=O)CO1 (stereo not given), COC(=O)/C=C/c1ccccc1CC1CCC(=O)N(c2c(Cl)cccc2Cl)C1 (stereo not given), O=C1CCC(Oc2ccc(F)cc2F)CN1C1C(Cl)CC(O)CC1Cl (stereo not given), O=C1OCC(Cc2ccccc2Cl)CN1c1c(Cl)cccc1Cl (stereo not given), O=C1CCC(Sc2ccc(Cl)cc2)CN1C1C(Cl)CCCC1Cl (stereo not given), CC(=O)Nc1ccc(Cl)c(N2CC(Cc3ccc(F)cc3F)CNC2=O)c1Cl (stereo not given), O=C1CCC(Sc2ccc(F)cc2)CN1c1c(Cl)cccc1Cl (stereo not given), O=C1CCC(Oc2cc(F)cc(F)c2)CN1c1c(Cl)cncc1Cl (stereo not given), Cc1ccccc1CC1CN(c2c(Cl)cccc2Cl)C(=O)CS1 (stereo not given), O=C1CCC(Cc2ccc(F)cc2F)CN1c1c(Cl)cnc(CO)c1Cl (stereo not given), COc1ccc(OC2CCC(=O)N(C3C(Cl)CCCC3Cl)C2)cc1 (stereo not given), O=Cc1ccccc1CC1CCC(=O)N(c2c(Cl)cccc2Cl)C1 (stereo not given), CNc1cc(Cl)c(N2CC(Cc3ccc(F)cc3F)CCC2=O)c(Cl)n1 (stereo not given), Cc1cc(C(=O)N2CCOCC2)cc(C)c1N1CC(Cc2ccc(F)cc2F)CCC1=O (stereo not given), O=C1OCC(Cc2ccc3ccccc3c2)CN1c1c(Cl)cccc1Cl (stereo not given), CNc1cnc(Cl)c(N2CC(Cc3ccc(F)cc3F)CCC2=O)c1Cl (stereo not given)
